For one series, the system named is Malassezia furfur. The series is described as follows: Intrinsic anti-Malassezia potency, growth inhibition by optical density. The class given is cell-based. Conditions: for IC50: M. furfur in mDixon medium, overnight at 31°, OD 600 nm; for independent anti-fungal effectiveness (in words): comment on Table 1 data. The protocol: To measure the growth inhibition properties of test materials against Malassezia, we carried out the following protocol.
Starting cultures are prepared by incubating with shaking at 31°. Cells (5 ml of culture) are collected by centrifugation and suspended in 50 ml fresh mDixon medium. […] The plates are shaken vigorously on a Heidolph Titramax 100 overnight at 31°. To increase the humidity, water-soaked cotton batting is placed over the plates.
As a control, the optical density of untreated M. furfur is measured after overnight incubation. As another control, the optical density of the starting culture is measured. The difference between these optical densities represents the amount of growth of M. furfur.

Series [1] can be described thus: Iron affinity, stepwise association constant log K1. The class given is physicochemical. From the text: The strength of the association between a ligand and metal, in this case iron, can be termed iron affinity.
The affinity constant is conveniently expressed as the logarithm (log K1) and the larger the magnitude of this number, the stronger the association between the metal (iron ions in this case) and ligand.

For another series, the system named is M. furfur 7982. The series is described as follows: Fractional Inhibitor Concentration (FIC) of chelator in combination with ZPT. The note with it: average of duplicate plates, 2 days at 33° C., ≦0.5 synergistic, >0.5-1.0 additive. The class given is cell-based, Malassezia furfur. From the text: Fractional Inhibitor Concentration (FIC) is a conventional methodology for evaluating antimicrobial interactions. In an embodiment of the present invention, an FIC is used to determine combinatorial effects of two chemicals on anti-Malassezia activity in a tissue culture setting.
• 1. Each FIC assay is run in duplicate. • 2. Low levels of M. furfur 7982 cells are inoculated into each well of a 96 well plate. • 3. Chemical #1 (in our assays, this is always ZPT) is titrated (2× concentration reductions) from right to left across each row of the plate, starting at 12.5 ppm final concentration and ending at 0 ppm. • 4. […] Plates are incubated at 33° C., 60% RH for 2 days with agitation. • 6. Optical densities (OD's) are then determined using a spectrophotometer.
• 1. […] Lack of inhibition of growth is determined if the OD>0.6, and the well is labeled with a ‘+’. • 3. The lowest concentration value of chemical #1, both by itself and with the lowest concentration of chemical #1 which boosts chemical #2's potency, that inhibit growth are determined (see FIG. 1). • 4. Likewise, the lowest concentration of chemical #2, both by itself and with the lowest concentration of chemical #2 that boosts chemical #1's potency, that inhibit growth are determined (see FIG. 1). • 5. The FIC value for the duplicate plates is determined using the calculations below:
[formula] [formula] • 6. The average FIC value is then determined, and the combinatorial effect of the two chemicals is classified according to the chart below: […]

The conditions of series [2]: cited from earlier work.
Setting [3] is: (c) interpolated from correlation between Zn2+ and Fe2+ data.
Setting [4] is: source (a) NIST Standard Reference Database 46.
[5] abbreviates: (e) interpolated from correlation between Cu2+ and Fe2+ data.
Setting [6] is: source (b) IUPAC Stability Constant Database.
The mark [7] stands for this setting: (d) interpolated from correlation between Fe3+ and Fe2+ data.

The source of these data is patent US20130109664A1 (priority 2011, published 2013).

Read-outs that look alike come from different tables or passages of the source.

Turning to `O=C(O)CN(CCN(CC(=O)O)CC(=O)O)CC(=O)O` [Ethylenediaminetetraacetic acid], the IC50 in the series on Malassezia furfur (Malassezia furfur) is greater than 500 µM. The “independent anti-fungal effectiveness (in words)” value in the series on Malassezia furfur is on record as “not to be effective”.
In the case of `O=c1cc(CO)occ1O` [kojic acid], the “Iron Affinity, log K1 Fe2+, pH = 7.4” value in series [1] (setting [3]) was determined as 3.7.
In the series on Malassezia furfur, `Oc1ccc2ccccc2c1N=Nc1nccs1` [1-(2-Thiazoylazo)-2-naphthol] came in with an IC50 of 250 µM. Further, the “Iron Affinity, log K1 Fe2+, pH = 7.4” value in series [1] (setting [3]) was found to be 6.6.
As to `CCCCCCCCOc1cccc(=O)n1[O-].CCCCCCCCOc1cccc(=O)n1[O-].[Zn+2]` [N-Hydroxy-6-octyloxypyridine-2(1H)one, zinc salt], the “FIC (Fractional Inhibitory Concentration)” value in the series on M. furfur 7982 stood at 0.7.
As to `c1ccc(-c2cccc(-c3ccccn3)n2)nc1` [2,2′: 6′,2″-terpyridine], the “Iron Affinity, log K1 Fe2+, pH = 7.4” value in series [1] (setting [3]) came out at 5.0.
With Benzohydroxamic acid, Zinc Salt, in the series on M. furfur 7982, the “FIC (Fractional Inhibitory Concentration)” value is recorded as 0.3.
Regarding `O=C(O)CN1CCCN(CC(=O)O)CCN(CC(=O)O)CCCN(CC(=O)O)CC1` [1,4,8,11-Tetraazacyclotetradecane-N,N′,N″,N″′-tetraacetic acid], the “Iron Affinity, log K1 Fe2+, pH = 7.4” value in series [2] (setting [4]) is on record as 9.9. In the series with Malassezia furfur, the IC50 was greater than 500 µM.
In the case of `C1CNCCNCCNCCNCCNCCN1` [1,4,7,10,13,16-Hexaazacyclooctadecane], the “Iron Affinity, log K1 Fe2+, pH = 7.4” value in series [1] (setting [5]) was found to be 13.3.
Take `Oc1ccc(N=Nc2nccs2)c(O)c1` [4-(2-thiazolylazo)-resorcinol]: the “Iron Affinity, log K1 Fe2+, pH = 7.4” value in series [2] (setting [4]) was 3.2.
Consider `S=C(N=Nc1ccccc1)NNc1ccccc1` [1,5-Diphenyl-1,2,4,5-tetraazapent-1-en-3-thione], for which the “Iron Affinity, log K1 Fe2+, pH = 7.4” value in series [2] (setting [4]) is 6.5.
With `NCCC(=O)N[C@@H](Cc1c[nH]cn1)C(=O)O` [beta-Alanyl-L-histidine], the “Iron Affinity, log K1 Fe2+, pH = 7.4” value in series [1] (setting [3]) is recorded as 1.3.
As to `Oc1cccc2cccnc12` [8-hydroxyquinoline], the “Iron Affinity, log K1 Fe2+, pH = 7.4” value in series [1] (setting [3]) came to 4.9.
As for `[O-]n1ccccc1=S.[O-]n1ccccc1=S.[Zn+2]` [Zinc Pyrithione, zinc salt of 1-hydroxy-2-pyridinethione], in series [1] (setting [3]), the “Iron Affinity, log K1 Fe2+, pH = 7.4” value was 4.3.
Turning to `Oc1c(Cl)cc(Cl)c2cccnc12` [5,7-dichloro-8-hydroxyquinoline], the “Iron Affinity, log K1 Fe2+, pH = 7.4” value in series [2] (setting [6]) was 7.2.
Regarding Thiomaltol, Zinc salt, the “FIC (Fractional Inhibitory Concentration)” value in the series on M. furfur 7982 is 0.5.
With `Cc1c(O)c(=O)ccn1C` [3-Hydroxy-1,2-dimethyl-4(1H)-pyridone], in series [1] (setting [3]), the “Iron Affinity, log K1 Fe2+, pH = 7.4” value turned out to be 3.9.
Turning to Maltol, Zinc salt, the “FIC (Fractional Inhibitory Concentration)” value with M. furfur 7982 turned out to be 0.1.
For `CCCCCCCCOc1cccc(=O)n1O.NCCO` [N-Hydroxy-6-octyloxypyridine-2(1H)one, ethanolamine salt], the IC50 in the series on Malassezia furfur worked out at 54.6 µM. The “FIC (Fractional Inhibitory Concentration)” value in the series on M. furfur 7982 amounted to 0.62. Moreover, the “Iron Affinity, log K1 Fe2+, pH = 7.4” value in series [1] (setting [7]) was 5.4.
With `CCC(NCCNC(CC)C(=O)O)C(=O)O` (stereo not shown) [Ethylenediiminodi-2-butanoic acid], in the series on Malassezia furfur, the IC50 was greater than 500 µM. In addition, the “Iron Affinity, log K1 Fe2+, pH = 7.4” value in series [1] (setting [3]) is recorded as 6.3.
Take `O=C(O)CN(CC(=O)O)[C@@H]1CCCC[C@H]1N(CC(=O)O)CC(=O)O` (relative stereo) [trans-1,2-Cyclohexylenedinitrilotetraacetic acid]: the “Iron Affinity, log K1 Fe2+, pH = 7.4” value in series [2] (setting [4]) was 14.0. In the series on Malassezia furfur, this compound registered an IC50 of 500 µM.
In the case of `Cc1occc(=O)c1O` [maltol], the “independent anti-fungal effectiveness (in words)” value with Malassezia furfur is listed as “too hydrophilic to be an effective anti-fungal material independently”. For the same compound, in series [1] (setting [3]), the “Iron Affinity, log K1 Fe2+, pH = 7.4” value worked out at 6.4.
`NCCc1ccccn1` [2-(2-aminoethyl)-pyridine]: the “Iron Affinity, log K1 Fe2+, pH = 7.4” value in series [1] (setting [7]) is listed as 5.2.
For `c1ccc(CN(CCN(Cc2ccccn2)Cc2ccccn2)Cc2ccccn2)nc1` [N,N,N′,N-tetrakis(2-pyridylmethyl) ethylenediamine], the “Iron Affinity, log K1 Fe2+, pH = 7.4” value in series [2] (setting [4]) is listed as 14.2. This compound registered an IC50 with Malassezia furfur of 71 µM.
`O=C(O)CN(CCO)CCO` [N,N-Bis(2-hydroxyethyl)glycine]: the “Iron Affinity, log K1 Fe2+, pH = 7.4” value in series [1] (setting [3]) is reported as 3.6.
Turning to `Cc1ccc2ccc3ccc(C)nc3c2n1` [2,9-dimethyl-1,10-phenanthroline], the “Iron Affinity, log K1 Fe2+, pH = 7.4” value in series [1] (setting [3]) is 3.3.
As for `c1cnc2c(c1)ccc1cccnc12` [1,10-Phenanthroline], the “Iron Affinity, log K1 Fe2+, pH = 7.4” value in series [2] (setting [4]) is on record as 5.9.
On to `Cc1c([O-])c(=O)ccn1C.Cc1c([O-])c(=O)ccn1C.[Zn+2]` [1,2-Dimethyl-3-hydroxy-4-pyridone, Zinc salt], for which, in the series with M. furfur 7982, the “FIC (Fractional Inhibitory Concentration)” value stood at 0.5.
With `CC(C)c1cccc(O)c(=O)c1` [1-Hydroxy-4-(1-methylethyl)cyclohepta-3,5,7-trien-2-one], the IC50 with Malassezia furfur (Malassezia furfur) came to 65 µM. Also, in series [1] (setting [3]), the “Iron Affinity, log K1 Fe2+, pH = 7.4” value is listed as 4.9.
In the case of `Cc1occc(=S)c1O` [Thiomaltol], the “FIC (Fractional Inhibitory Concentration)” value with M. furfur 7982 is 0.8.
Regarding `Oc1c(I)cc(Cl)c2cccnc12` [5-Chloro-8-hydroxy-7-iodoquinoline], the “Iron Affinity, log K1 Fe2+, pH = 7.4” value in series [2] (setting [6]) is listed as 7.0.
As to `O=C1c2cccc3cccc(c23)C(=O)N1O` [N,N-Naphthaloylhydroxylamine], the “FIC (Fractional Inhibitory Concentration)” value in the series with M. furfur 7982 is 0.8.
Regarding `O=C(O)c1ccccc1O` [Salicylic acid], the IC50 in the series with Malassezia furfur (Malassezia furfur) is greater than 500 µM. In addition, in series [1] (setting [5]), the “Iron Affinity, log K1 Fe2+, pH = 7.4” value is reported as −3.0.
